Measurements reported in ChEMBL document CHEMBL1201862, “PubChem BioAssay data set” (2004).
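1) Cells in 96-well plates. 2) Compound, 48 h, 5 concentrations. 3) Linear interpolation between surrounding doses. 4) Unreached endpoint = highest concentration. Abbreviation: GI50, concentration required for 50% inhibition of growth.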 The source made the active and inactive calls. No stated cut-off is given here; in the data, active = GI50 up to about 1.1 µM and inactive = higher.

Tests used:
Assay in all cases: NCI-60 cell line screen, 48 h
HCC 2998 = test system: HCC 2998
T47D = test system: T47D
PC-3 = test system: PC-3
MDA-MB-231 = test system: MDA-MB-231
NCI-H23 = test system: NCI-H23
TK-10 = test system: TK-10
Malme-3M = test system: Malme-3M
NCI/ADR-RES = test system: NCI/ADR-RES
SNB-75 = test system: SNB-75
KM12 = test system: KM12
SK-MEL-5 = test system: SK-MEL-5
MDA-N = test system: MDA-N
NCI-H522 = test system: NCI-H522
ACHN = test system: ACHN
HT-29 = test system: HT-29
SN12C = test system: SN12C
HL-60 = test system: HL-60
OVCAR-3 = test system: OVCAR-3
IGROV-1 = test system: IGROV-1
M14 = test system: M14

Measured: GI50

Clc1ccc(CCNC2(c3cc4ccccc4s3)CCCCC2)cc1Cl
inactive: HCC 2998 7.74 µM | T47D 20.2 µM | PC-3 43.2 µM | MDA-MB-231 21.1 µM | NCI-H23 26.5 µM | TK-10 20.8 µM | Malme-3M 19.5 µM | NCI/ADR-RES 24 µM | SNB-75 14.2 µM | KM12 21.8 µM | SK-MEL-5 15.6 µM | MDA-N 32.3 µM | NCI-H522 17.5 µM | ACHN 26.2 µM | HT-29 10 µM | SN12C 33.7 µM | HL-60 16.7 µM | OVCAR-3 20.6 µM | IGROV-1 40.8 µM | M14 23.8 µM

CCOP(=O)(OCC)C(=C1C=C(C(C)(C)C)C(=O)C(C(C)(C)C)=C1)P(=O)(OCC)OCC
inactive: HCC 2998 > 10 µM | T47D 2.13 µM | PC-3 > 10 µM | MDA-MB-231 > 9.27 µM | NCI-H23 > 10 µM | TK-10 3.27 µM | Malme-3M 1.82 µM | NCI/ADR-RES > 10 µM | SNB-75 > 10 µM | KM12 > 10 µM | SK-MEL-5 > 10 µM | MDA-N > 5.68 µM | NCI-H522 2.27 µM | ACHN 1.94 µM | HT-29 > 10 µM | SN12C > 10 µM | HL-60 3.53 µM | OVCAR-3 2.41 µM | IGROV-1 > 10 µM | M14 1.97 µM

Cc1nc2ccccc2n1CCc1nc2ccccc2s1
inactive: HCC 2998 38.3 µM | T47D 7.21 µM | PC-3 39.9 µM | MDA-MB-231 39.6 µM | NCI-H23 30 µM | TK-10 45.4 µM | Malme-3M 17.3 µM | NCI/ADR-RES 40.6 µM | SNB-75 78 µM | KM12 56.1 µM | SK-MEL-5 2.88 µM | MDA-N 48.9 µM | NCI-H522 15.6 µM | ACHN 20 µM | HT-29 21.1 µM | SN12C > 100 µM | HL-60 14.3 µM | OVCAR-3 17.8 µM | IGROV-1 > 100 µM | M14 33 µM

CCOC(=O)/C=C(/N=P(c1ccccc1)(c1ccccc1)c1ccccc1)C(F)(F)F
inactive: HCC 2998 22 µM | T47D 22.1 µM | PC-3 > 10 µM | MDA-MB-231 > 10 µM | NCI-H23 > 10 µM | TK-10 > 10 µM | Malme-3M > 10 µM | NCI/ADR-RES > 10 µM | SNB-75 > 10 µM | KM12 > 10 µM | SK-MEL-5 > 10 µM | MDA-N > 10 µM | NCI-H522 61.9 µM | ACHN > 10 µM | HT-29 > 10 µM | SN12C > 10 µM | HL-60 > 10 µM | OVCAR-3 > 10 µM | IGROV-1 > 10 µM | M14 > 10 µM

O=C1C(Cl)=C(Oc2ccc([N+](=O)[O-])cc2)C(=O)c2c(O)ccc(O)c21
inactive: HCC 2998 > 100 µM | T47D 29.9 µM | PC-3 > 100 µM | MDA-MB-231 28.4 µM | NCI-H23 > 57.9 µM | TK-10 44.1 µM | Malme-3M 18.1 µM | NCI/ADR-RES > 100 µM | SNB-75 > 100 µM | KM12 > 100 µM | SK-MEL-5 > 84.1 µM | MDA-N 21 µM | NCI-H522 19.2 µM | ACHN 54.2 µM | HT-29 33.9 µM | SN12C 98.4 µM | HL-60 4.65 µM | OVCAR-3 33.6 µM | IGROV-1 > 100 µM | M14 > 47.8 µM
